Laboratory results reported in patent US20090246269A1, “IDENTIFICATION AND USE OF GPRC VARIANTS IN THE TREATMENT AND DIAGNOSIS OF PARKINSON'S DISEASE” (priority 2006, published 2009).

Target: T1, BDKRB2 reference form (Homo sapiens, UniProt P30411)
T1 construct: expressed in transfected cells; host or cells: CHO-K1
T1 sequence (P30411 1-391): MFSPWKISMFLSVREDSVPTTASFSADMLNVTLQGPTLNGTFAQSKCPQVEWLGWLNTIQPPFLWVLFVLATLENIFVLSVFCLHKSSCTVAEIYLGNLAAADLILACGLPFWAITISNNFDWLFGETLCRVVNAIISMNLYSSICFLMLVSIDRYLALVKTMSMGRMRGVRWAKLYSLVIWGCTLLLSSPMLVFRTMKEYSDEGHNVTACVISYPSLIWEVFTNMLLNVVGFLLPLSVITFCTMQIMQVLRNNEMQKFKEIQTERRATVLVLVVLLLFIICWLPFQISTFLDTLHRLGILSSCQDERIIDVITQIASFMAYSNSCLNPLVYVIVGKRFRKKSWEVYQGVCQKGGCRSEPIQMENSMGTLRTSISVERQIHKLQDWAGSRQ
Experiment: NFAT-Firefly luciferase reporter assay (Dual-Glo) of BDKRB2 dependent signaling in transfected CHO-K1 cells
Type: cell-based
Settings: 8 hour time-point
Protocol: FIG. 10: Effect of bradyzide titration on the activity of BDKRB2 reference form. CHO-K1 cells were transfected with pNFAT—Firefly Luciferase reporter, BDKBR2-pcDNA3.1 and pGL4.73 [hRenilla Luciferase/SV40]. 18 hrs after transfection, cells were treated with bradyzide at indicated concentration in 10% FBS medium for 8, 24 and 48 hrs. The Firefly luciferase reporter activity and the renilla luciferase activity were measured sequentially. BDKRB2 activity was estimated by calculating the Ratios of Firefly and Renilla Luciferase Units (RLU).
The Promega Dual-Glo™ Assay system was used to indirectly monitor BDKRB2 dependent signaling.

- inhibition of serum induced activity in luciferase reporter assay: inhibited
- reduction of serum-induced basal BDKRB2 activity (bradyzide titration, 10% FBS medium): about 40%
SMILES: CN(C)CCN(C)CCNC(=O)[C@@H]1CCCN1S(=O)(=O)c1ccc(NNC(=S)NC(c2ccccc2)c2ccccc2)c([N+](=O)[O-])c1 [bradyzide]
